This passage reports MIC, IC50 and Ratio results from ChEMBL document CHEMBL3400001, “Tricyclic 1,5-naphthyridinone oxabicyclooctane-linked novel bacterial topoisomerase inhibitors as broad-spectrum antibacterial agents-SAR of left-hand-side moiety (Part-2)” (Bioorg Med Chem Lett, 2015).

As a reminder, the IC50 is the midpoint of a concentration-inhibition curve.

The test system of one assay is Escherichia coli. Kind of assay: Antimicrobial activity against Escherichia coli ATCC 25922 by micro broth dilution or agar based method. The format is functional. In general terms: Dilution methods test growth across graded concentrations, often in twofold steps.
A further assay deals with Acinetobacter baumannii. Kind of assay: Antimicrobial activity against Acinetobacter baumannii IID876 by micro broth dilution or agar based method. The format is functional.
In another assay the test system is Pseudomonas aeruginosa. Nature of the assay: Antimicrobial activity against Pseudomonas aeruginosa PAO1 by micro broth dilution or agar based method. The format is functional.
A further assay relates to Haemophilus influenzae. Nature of the assay: Antimicrobial activity against Haemophilus influenzae ATCC 49247 by micro broth dilution or agar based method. The format is functional.
A further assay deals with Moraxella catarrhalis. Kind of assay: Antimicrobial activity against Moraxella catarrhalis ATCC 25238 by micro broth dilution or agar based method. The format is functional.
The target of assay [1] is T1, Voltage-gated inwardly rectifying potassium channel KCNH2 (Homo sapiens, UniProt Q12809). Nature of the assay: Inhibition of human ERG by MK499 binding assay.
Assay [2] concerns Staphylococcus aureus. Nature of the assay: Ratio of MIC for quinolone-resistant Staphylococcus aureus MS5935 to MIC for quinolone-[…]. The format is functional.
Assay [3] concerns Staphylococcus aureus. Kind of assay: Antimicrobial activity against Staphylococcus aureus Smith by micro broth dilution or agar based method. The format is functional.
The test system of a further assay is Streptococcus pneumoniae. Nature of the assay: Antimicrobial activity against Streptococcus pneumoniae IID554 by micro broth dilution or agar based method. The format is functional.
A further assay deals with Enterococcus faecalis. Kind of assay: Antimicrobial activity against Enterococcus faecalis ATCC 29212 MB by micro broth dilution or agar based method. The format is functional.
A further assay concerns Enterococcus faecium. Kind of assay: Antimicrobial activity against vancomycin-resistant Enterococcus faecium A2373 expressing VanA by micro broth dilution or agar based method. The format is functional.
Assay [4] has as its target T1, Voltage-gated inwardly rectifying potassium channel KCNH2. Kind of assay: Inhibition of human ERG expressed in CHO cells by Patch express assay. The format is cell-based.
The mark [5] stands for this setting: Escherichia coli, ATCC 25922, read-out: MIC.
The mark [6] stands for this setting: Acinetobacter baumannii, IID876, read-out: MIC.
[7] abbreviates: Pseudomonas aeruginosa, PAO1, read-out: MIC.
Where [8] appears, read: Staphylococcus aureus, Smith, read-out: MIC.
Where [9] appears, read: Streptococcus pneumoniae, IID554, read-out: MIC.
[10] abbreviates: Enterococcus faecalis, ATCC 29212 MB, read-out: MIC.
Where [11] appears, read: Enterococcus faecium, A2373, read-out: MIC.

Converted amounts (≈) assume the structure as drawn. Some results are limits rather than exact numbers.

T1 sequence (Q12809 whole entry): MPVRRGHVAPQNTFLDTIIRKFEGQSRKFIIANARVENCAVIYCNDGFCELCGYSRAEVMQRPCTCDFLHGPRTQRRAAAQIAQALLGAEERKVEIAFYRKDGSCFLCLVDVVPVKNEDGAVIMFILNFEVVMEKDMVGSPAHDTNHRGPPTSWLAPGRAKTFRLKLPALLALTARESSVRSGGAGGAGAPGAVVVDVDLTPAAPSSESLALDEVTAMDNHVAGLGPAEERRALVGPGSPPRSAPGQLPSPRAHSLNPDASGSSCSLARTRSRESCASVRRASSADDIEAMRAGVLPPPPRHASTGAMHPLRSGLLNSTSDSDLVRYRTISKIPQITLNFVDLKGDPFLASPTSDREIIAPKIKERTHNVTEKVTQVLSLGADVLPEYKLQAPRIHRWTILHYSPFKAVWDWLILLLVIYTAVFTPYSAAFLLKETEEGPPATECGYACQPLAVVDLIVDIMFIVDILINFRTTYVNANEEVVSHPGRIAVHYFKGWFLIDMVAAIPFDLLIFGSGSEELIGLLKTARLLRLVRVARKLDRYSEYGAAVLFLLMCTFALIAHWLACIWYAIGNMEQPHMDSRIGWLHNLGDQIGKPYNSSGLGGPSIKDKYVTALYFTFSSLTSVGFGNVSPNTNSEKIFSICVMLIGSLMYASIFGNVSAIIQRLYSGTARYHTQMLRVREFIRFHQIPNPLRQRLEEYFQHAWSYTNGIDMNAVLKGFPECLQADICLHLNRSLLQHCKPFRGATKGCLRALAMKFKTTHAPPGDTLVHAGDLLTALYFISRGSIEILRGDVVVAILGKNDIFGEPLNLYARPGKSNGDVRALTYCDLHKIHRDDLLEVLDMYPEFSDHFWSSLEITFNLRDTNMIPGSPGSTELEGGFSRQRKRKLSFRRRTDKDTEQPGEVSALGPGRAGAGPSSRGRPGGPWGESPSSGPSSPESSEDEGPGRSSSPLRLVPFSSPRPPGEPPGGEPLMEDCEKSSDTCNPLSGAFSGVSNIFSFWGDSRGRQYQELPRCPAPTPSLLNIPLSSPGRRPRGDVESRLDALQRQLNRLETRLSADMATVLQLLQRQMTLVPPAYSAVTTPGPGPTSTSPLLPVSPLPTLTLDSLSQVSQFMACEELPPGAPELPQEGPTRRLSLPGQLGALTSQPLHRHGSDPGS

As to `O=C1COc2ccc(CNC34CCC(C[C@]5(O)Cn6c(=O)c(F)cc7ncc(F)c5c76)(CC3)OC4)nc2N1`, the MIC with Escherichia coli (setting [5]) amounted to 4 µg/mL (≈ 7.61 µM); in the assay with Acinetobacter baumannii (setting [6]), 4 µg/mL (≈ 7.61 µM); with Pseudomonas aeruginosa (setting [7]) it was 16 µg/mL (≈ 30.4 µM); against Haemophilus influenzae, 1 µg/mL (≈ 1.9 µM); against Moraxella catarrhalis it was 0.25 µg/mL (≈ 0.476 µM); in the assay on Staphylococcus aureus [3] (setting [8]) it was 0.25 µg/mL (≈ 0.476 µM). Further, the MIC in the assay with Streptococcus pneumoniae (setting [9]) came out at 0.5 µg/mL (≈ 0.951 µM); in the assay with Enterococcus faecalis (setting [10]), 2 µg/mL (≈ 3.81 µM); in the assay with Enterococcus faecium (setting [11]), 4 µg/mL (≈ 7.61 µM). In assay [1], this compound yielded an IC50 of more than 60 µM. Also, in the assay on Staphylococcus aureus [2], the Ratio is on record as less than 4.

With `O=C1COc2ccc(CNC34CCC(CC5Cn6c(=O)ccc7ncc(F)c5c76)(CC3)OC4)nc2N1` (racemic), the MIC in the assay on Escherichia coli stood at 1 µg/mL (≈ 2.03 µM); in the assay with Pseudomonas aeruginosa it was 8 µg/mL (≈ 16.3 µM); with Staphylococcus aureus [3], 0.12 µg/mL (≈ 0.244 µM); in the assay on Streptococcus pneumoniae (setting [9]), 0.25 µg/mL (≈ 0.509 µM). Also, the figures for the IC50 in [1] and in assay [4] were 23 µM and 30 µM, respectively.

With `COc1cnc2ccc(=O)n3c2c1[C@@](O)(CC12CCC(NCc4ccc5c(n4)NC(=O)CO5)(CC1)CO2)C3`, the MIC worked out at 32 µg/mL (≈ 61.6 µM) with Escherichia coli (setting [5]); 32 µg/mL (≈ 61.6 µM) with Acinetobacter baumannii (setting [6]); 32 µg/mL (≈ 61.6 µM) with Pseudomonas aeruginosa (setting [7]); 8 µg/mL (≈ 15.4 µM) with Staphylococcus aureus [3] (setting [8]); 32 µg/mL (≈ 61.6 µM) in the assay on Streptococcus pneumoniae (setting [9]); 32 µg/mL (≈ 61.6 µM) with Enterococcus faecalis (setting [10]). Besides, the MIC in the assay with Enterococcus faecium (setting [11]) turned out to be 32 µg/mL (≈ 61.6 µM).

Regarding `O=C1COc2ccc(CNC34CCC(CC5(F)Cn6c(=O)ccc7ncc(F)c5c76)(CC3)OC4)nc2N1` (racemic), the MIC with Escherichia coli (setting [5]) is 4 µg/mL (≈ 7.85 µM); with Acinetobacter baumannii (setting [6]), 1 µg/mL (≈ 1.96 µM); in the assay on Pseudomonas aeruginosa (setting [7]), 32 µg/mL (≈ 62.8 µM); in the assay with Staphylococcus aureus [3] (setting [8]) it was 0.25 µg/mL (≈ 0.491 µM); in the assay with Streptococcus pneumoniae (setting [9]), 0.5 µg/mL (≈ 0.981 µM); with Enterococcus faecalis (setting [10]) it was 2 µg/mL (≈ 3.93 µM). The MIC in the assay with Enterococcus faecium (setting [11]) amounted to 4 µg/mL (≈ 7.85 µM).

On to `O=C1COc2ccc(CNC34CCC(CC5Cn6c(=O)ccc7ncc(F)c5c76)(CC3)OC4)nc2N1` (stereo in doubt; 9), for which the MIC stood at 1 µg/mL (≈ 2.03 µM) with Escherichia coli (setting [5]); 0.5 µg/mL (≈ 1.02 µM) in the assay with Acinetobacter baumannii; 16 µg/mL (≈ 32.6 µM) with Pseudomonas aeruginosa (setting [7]); 0.25 µg/mL (≈ 0.509 µM) in the assay with Streptococcus pneumoniae; 0.5 µg/mL (≈ 1.02 µM) against Enterococcus faecalis; 1 µg/mL (≈ 2.03 µM) in the assay with Enterococcus faecium. Further, the IC50 was 15.2 µM in assay [1] and 15.8 µM in assay [4]. Also, the Ratio with Staphylococcus aureus [2] is given as less than 4.

Consider `Cc1cc(=O)n2c3c(c(F)cnc13)[C@@](O)(CC13CCC(NCc4ccc5c(n4)NC(=O)CO5)(CC1)CO3)C2`, for which the MIC with Escherichia coli (setting [5]) is 32 µg/mL (≈ 61.4 µM); with Acinetobacter baumannii (setting [6]), 2 µg/mL (≈ 3.83 µM); in the assay with Pseudomonas aeruginosa (setting [7]), 32 µg/mL (≈ 61.4 µM); against Haemophilus influenzae, 16 µg/mL (≈ 30.7 µM); against Moraxella catarrhalis it was 2 µg/mL (≈ 3.83 µM); in the assay with Staphylococcus aureus [3] (setting [8]), 8 µg/mL (≈ 15.3 µM). In addition, the figures for the MIC in the assay with Streptococcus pneumoniae (setting [9]), in the assay with Enterococcus faecalis (setting [10]) and in the assay on Enterococcus faecium (setting [11]) were 8 µg/mL (≈ 15.3 µM), 16 µg/mL (≈ 30.7 µM) and 32 µg/mL (≈ 61.4 µM), respectively. Moreover, the IC50 in assay [1] was more than 60 µM. Besides, the Ratio with Staphylococcus aureus [2] is on record as less than 4.

Turning to `O=C1COc2ccc(CNC34CCC(C[C@]5(O)Cn6c(=O)ccc7ncc(Cl)c5c76)(CC3)OC4)nc2N1`, the MIC in the assay with Escherichia coli (setting [5]) came to 8 µg/mL (≈ 15.3 µM); in the assay with Acinetobacter baumannii (setting [6]), 8 µg/mL (≈ 15.3 µM); in the assay with Pseudomonas aeruginosa (setting [7]), 32 µg/mL (≈ 61.1 µM); in the assay on Staphylococcus aureus [3] (setting [8]), 0.5 µg/mL (≈ 0.954 µM); with Streptococcus pneumoniae (setting [9]), 1 µg/mL (≈ 1.91 µM); in the assay with Enterococcus faecalis (setting [10]), 4 µg/mL (≈ 7.63 µM). For the same compound, in the assay on Enterococcus faecium (setting [11]), the MIC stood at 8 µg/mL (≈ 15.3 µM). In assay [1], the IC50 was 53.3 µM. Also, in the assay with Staphylococcus aureus [2], the Ratio is reported as less than 4.

With `O=C1COc2ccc(CNC34CCC(C[C@@]5(O)CN6C(=O)CCc7ncc(F)c5c76)(CC3)OC4)nc2N1`, the MIC stood at 32 µg/mL (≈ 62.8 µM) in the assay with Escherichia coli (setting [5]); 32 µg/mL (≈ 62.8 µM) in the assay with Acinetobacter baumannii (setting [6]); 32 µg/mL (≈ 62.8 µM) in the assay with Pseudomonas aeruginosa (setting [7]); 8 µg/mL (≈ 15.7 µM) with Staphylococcus aureus [3] (setting [8]); 32 µg/mL (≈ 62.8 µM) in the assay with Streptococcus pneumoniae (setting [9]); 32 µg/mL (≈ 62.8 µM) with Enterococcus faecalis (setting [10]). Further, in the assay on Enterococcus faecium (setting [11]), the MIC came out at 32 µg/mL (≈ 62.8 µM). The compound also had an IC50 in assay [1] of more than 60 µM. Moreover, the Ratio with Staphylococcus aureus [2] is reported as less than 4.

Consider `O=C1COc2ccc(CNC34CCC(C[C@@]5(O)Cn6c(=O)c(F)cc7ncc(F)c5c76)(CC3)OC4)nc2N1`, for which the MIC amounted to 16 µg/mL (≈ 30.4 µM) in the assay with Escherichia coli (setting [5]); 32 µg/mL (≈ 60.9 µM) in the assay on Acinetobacter baumannii (setting [6]); 32 µg/mL (≈ 60.9 µM) with Pseudomonas aeruginosa (setting [7]); 8 µg/mL (≈ 15.2 µM) in the assay on Haemophilus influenzae; 1 µg/mL (≈ 1.9 µM) against Moraxella catarrhalis; 4 µg/mL (≈ 7.61 µM) in the assay on Staphylococcus aureus [3] (setting [8]). The MIC amounted to 4 µg/mL (≈ 7.61 µM) in the assay with Streptococcus pneumoniae (setting [9]), 16 µg/mL (≈ 30.4 µM) in the assay on Enterococcus faecalis (setting [10]) and 32 µg/mL (≈ 60.9 µM) with Enterococcus faecium (setting [11]). Moreover, in assay [1], the IC50 was more than 60 µM. Besides, the Ratio in the assay with Staphylococcus aureus [2] is given as less than 4.

Regarding `COc1cnc2ccc(=O)n3c2c1[C@](O)(CC12CCC(NCc4ccc5c(n4)NC(=O)CO5)(CC1)CO2)C3`, the MIC with Escherichia coli (setting [5]) is 32 µg/mL (≈ 61.6 µM); in the assay on Acinetobacter baumannii (setting [6]), 32 µg/mL (≈ 61.6 µM); with Pseudomonas aeruginosa (setting [7]) it was 32 µg/mL (≈ 61.6 µM); in the assay on Staphylococcus aureus [3] (setting [8]), 8 µg/mL (≈ 15.4 µM); with Streptococcus pneumoniae (setting [9]), 8 µg/mL (≈ 15.4 µM); in the assay on Enterococcus faecalis (setting [10]), 32 µg/mL (≈ 61.6 µM). Moreover, the MIC in the assay on Enterococcus faecium (setting [11]) is 32 µg/mL (≈ 61.6 µM).
